The results in this text go back to patent US20210145802A1, “THERAPY FOR OPHTHALMOLOGICAL CONDITIONS” (WREN THERAPEUTICS LIMITED, priority 2018, published 2021).

In experiment [1] the test system is CL2331 (Aβ3-42::GFPMuscular worms). The experiment can be described thus: Automated motility assay, Aβ3-42::GFPMuscular worms. The note with it: compared to untreated worms. The experiment is classed as in vivo, C. elegans. As to the method: CL2331; dvIs37 [myo-3p::GFP::A-Beta (3-42)+rol-6(su1006)] (Aβ3-42::GFPMuscular worms). Maintain at 16 C. Roller. Diffuse and aggregated GFP expression in body wall muscle. Low brood size. Sicker at higher temperatures. (C. D. Link et al., The β amyloid peptide can act as a modular aggregation domain. Neurobiol. Dis. 32, 420-425 (2008));
Briefly, Netoglitazone stocks (5 mM in 100% DMSO) were used at an appropriate concentration to seed 9-cm NGM plates. Plates were then placed in a laminar flow hood at room temperature (22° C.) for up to 4 hours to dry. […]
(§1) All C. elegans populations were cultured at 20° C. and developmentally synchronized from a 4 h egg-lay. At 64-72 h post-egg-lay (time zero), individuals were transferred to FUDR plates, and body movements were assessed over the times indicated. At different ages, the animals were washed off the plates with M9 buffer and spread over an OP-50 unseeded 9 cm plate, after which their movements were recorded at 20 fps using a recently developed microscopic procedure (M. Perni et al., Massively parallel C. elegans tracking provides multi-dimensional fingerprints for phenotypic discovery. J. Neurosci. Methods. 306, 57-67 (2018)) for 1 min. Up to 600 animals were counted in each experiment in duplicate unless stated otherwise. […]

In experiment [2] the target is T1, Aβ42 (Homo sapiens, UniProt P05067).
T1 construct: […]; made in house; host or cells: E. coli BL21 Gold (DE3)
T1 sequence (P05067 671-713): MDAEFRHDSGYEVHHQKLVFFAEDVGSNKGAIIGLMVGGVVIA
The experiment can be described thus: Seeded Aβ42 aggregation kinetics (2% or 50% preformed fibril seeds). It is filed as biochemical. The conditions noted are these: 2 μM Aβ42. As to the method: For the seeded experiments, preformed fibrils were prepared just prior to the experiment. Kinetic experiments were set up as described above for 5 μM Aβ42 samples in 20 mM sodium phosphate buffer, pH 8 with 200 μM EDTA, 0.02% NaN3 and 20 μM ThT. The ThT fluorescence was monitored for 3 hours to verify the formation of fibrils. Samples were then collected from the wells into low-binding tubes. Under the considered conditions (i.e. 5 μM Aβ42), the monomer concentration is negligible at equilibrium. The final concentration of fibrils, in monomer equivalents, was considered equal to the initial concentration of monomer. Fibrils were then added to freshly prepared monomer in order to reach either 2% or 50% final concentration of seeds in the absence or the presence of Netoglitazone.
Inhibitors can interfere with the aggregation process by inhibiting one or more of the individual microscopic steps. We can identify the microscopic events that are inhibited by the chemical compounds by fitting the integrated rate law (Eq. (54) in Cohen et al., J Chem Phys 135, 065106) to the macroscopic aggregation profiles and comparing the fitted set of microscopic rate constants (k+k2 and k+kn in the absence of pre-formed seeds; k+ and k2 in the presence of pre-formed seeds where primary nucleation is bypassed) required to describe the time evolution of the fibril formation in the absence and presence of Netoglitazone. The analysis is analogous to that carried out in Habchi et al., Proc Natl Acad Sci USA; 114(2):E200-E208, 2017 to study the effects of other small molecules on Aβ42 aggregation.

The target in experiment [3] is T1, Aβ42. The experiment can be described thus: Chemical kinetics analysis of Aβ42 aggregation profiles (rate constants). The experiment is classed as biochemical. The conditions noted are these: 2 μM Aβ42; increasing compound concentrations. The source says:
The time evolution of the total fibril mass concentration is described as a function only of the initial conditions and the rate constants of the system by the integrated rate law given by Eq. (54) in Cohen et al., J Chem Phys 135, 065106, 2011.
These are related to the rate of formation of new aggregates through primary pathways λ=√{square root over (2k+knm(0)^n^c)} and through secondary pathways κ=√{square root over (2k+k2m(0)^n^2^+1)}, where the initial concentration of soluble monomers is denoted by m(0), nc and n2 describe the dependencies of the primary and secondary pathways on the monomer concentration (nc=n2=2 for Aβ42), and kn, k+ and k2 are the rate constants of the primary nucleation, elongation and secondary nucleation, respectively (Cohen et al., Proc Natl Acad Sci USA, 110(24), 9758-63, 2013). […]
A quantitative analysis was carried out on the effects of the molecules by matching the experimental aggregation profiles to kinetic curves calculated using the rate laws derived from a master equation that relates the time evolution of fibril formation to the rate constants of the different microscopic events. In this approach, the aggregation profiles in the presence of an inhibitor are described by introducing into the rate laws suitable perturbations to each of the microscopic rate constants evaluated in the absence of the inhibitor. […]

Experiment [4] relates to CL2355 (Aβ1-42Neur worms). The experiment can be described thus: Automated motility assay, Aβ1-42Neur worms. It is filed as in vivo, C. elegans. The note with it: compared to untreated worms. The procedure:
Briefly, Netoglitazone stocks (5 mM in 100% DMSO) were used at an appropriate concentration to seed 9-cm NGM plates. Plates were then placed in a laminar flow hood at room temperature (22° C.) for up to 4 hours to dry. C. elegans cultures were then transferred onto media seeded with compound as L4 stage or Day 3 for late treatments and incubated at 24° for the whole experiment. Experiments were carried out at different Netoglitazone concentrations ranging from 0.05 to 500 μM in 1% DMSO. As controls, plates seeded only with 1% DMSO were used.
as §1

`O=C1NC(=O)C(Cc2ccc3cc(OCc4ccccc4F)ccc3c2)S1` (stereo not drawn) [Netoglitazone]: the “motility of Aβ3-42::GFPMuscular worms” value in experiment [1] was “significantly improves the motility”. The “decrease of rate constant of surface-catalyzed secondary nucleation (k2)” value at Aβ42 [2] (2% seeds, 20-fold excess) was “about 80%”. At Aβ42 [2] (2% seeds, range of concentrations), the “inhibition of secondary pathways (k2k+) with 2% preformed seeds” value is reported as “concentration-dependent inhibition of secondary pathways”. Besides, on Aβ42 [2] (50% seeds, up to 20-fold excess), the “effect on aggregation kinetics with 50% preformed seeds (elongation)” value is on record as “did not affect the aggregation kinetics”. Moreover, the “effect on rate constants of primary (knk+) and secondary (k2k+) pathways” value at Aβ42 [3] is given as “can affect both nucleation pathways”. In experiment [4], the “motility of Aβ1-42Neur worms” value is “significantly improves the motility”.
